The test system of series [1] is C6 cells from rat glioma. The experiment in a line: DNA fragmentation assay. The class given is cell-based. The following applies: curcumin 100 μM or Cur-[G2]-OH 300 μM, 24 h. The method, then: To determine DNA fragmentation, C6 cells (1×10^6) were seeded in Petri dishes (100 mm) at a confluence of 70%. They were treated with curcumin (100 μM) or Cur-[G2]-OH (300 μM) and incubated for 24 and 48 hours. Controls were incubated with vehicle only (DMSO or PBS respectively).
The DNA was extracted using Trizol (Invitrogen® 15596-026), according to the supplier's specifications, and quantified on a spectrophotometer (Genesys 8®). 20 μg of DNA from each sample was deposited on a 1.5% agarose gel. Electrophoresis was performed at 100 V for 90 minutes. The gel was stained with the Hydragreen™ dye (ACTGene ACT-IDM604) and DNA detection was performed using the ethidium bromide filter and UV light on the Chemidoc-It TS2 imager photodocument (UVP, CA).

A short description of series [2]: Stability in acidic pH of gastric juices. The class given is physicochemical.
Another series deals with C6 cells. As to the kind of experiment: Effect on glutathione (GSH) concentration, GT10 colorimetric test. The class given is cell-based, rat. The method, then: Reduced glutathione (GSH) intracellular concentration were measured by a colorimetric test using the GT10 (Oxford Biomedical Research® kit), following the manufacturer's instructions. […] The controls were incubated with DMEM media only. Absorbance was read at 400 nm in Cytation3 ® cell Imaging Multi-mode reader (BioTeck, USA). It is observed that at low concentrations of Cur-[G2]-OH, the synthesis of GSH is induced in C6 cells, but at high concentrations GSH synthesis is inhibited and decrease its concentration in cells.

Series [3] has as its system Beclin-1, p62, Nrf2, eIF2a and p-eIF2α in C6 cells. The experiment in a line: Analysis of autophagy markers and Nrf2 pathway by Western blot. The class given is cell-based, rat. How it is done: C6 cells were grown in 25 cm^2 culture bottles (Corning® N.Y.) to form a 70% confluent monolayer (approximately 4×10^6 cells) and treated with Cur-[G2]-OH (300 μM) for 24 hours. The cells were washed in cold PBS, and lysis buffer (50 mM Tris-HCl, 120 mM NaCl, 0.01% IGEPAL) was added with a protease inhibitor cocktail (Sigma® P8340) and centrifuged to recover the supernatant. Proteins were quantified by the Lowry method (Lowry et al. 1951).
[…] The membranes were blocked with skim milk and subsequently incubated with the respective primary antibody (Beclin1, ab62557; p62, ab91526; Nrf2, sc-30915; p-eIF2α, sc-12412; eIF2, sc-11386 or β-actin, sc-47778) under stirring overnight at 4° C. After incubation, the membranes were washed with a Tween 20 tris-base saline buffer (TBST) and incubated with the respective secondary antibody conjugated to horseradish peroxidase (SIGMA). The bands were visualized by chemiluminescence with the Western Blotting Luminol Reagent reagents (Santacruz Biotechnology®), and the ChemiDoc-It® TS2 Imaging System (UVP, LLC).
A general note: In western blotting, separated proteins are transferred to a membrane and probed.

The subject of series [4] is C6 cells from rat glioma. As to the kind of experiment: Determination of apoptotic death by dual staining with propidium iodide and Hoechst 33342. The class given is cell-based. The note with it: curcumin 100 μM or Cur-[G2]-OH 300 μM, 24 or 48 hours. The method, then:
C6 cells from rat glioma (American Tissue Culture Collection, Rockville, Md., U.S.A. ATCC® CCL-107™) cultured under standard conditions in DMEM medium supplemented with Bovine Fetal Serum and 15% horse serum were used for the experiments.
1×10^4 C6 cells/well were cultured with 100 μl of Dulbecco's Modified Eagle's Medium (DMEM) medium for 24 hours in 96-well plates. The cells were treated with curcumin (100 μM), or with Cur-[G2]-OH (300 μM), or with the respective vehicle as a control. After 24- or 48-hours post-treatment, the cells were fixed with a mixture of methanol/acetone (1:1) and stained with propidium iodide (0.5 μg/ml), washed and Hoechst 33342 dye was added (0.1 μg/ml) for staining the nuclei. Cells were observed on the Cytation 3® plate reader (BioTek® Instruments, Inc.) using the DAPI (λ=377-447 nm) and Texas Red (λ=586-647 nm) filters, and the images were captured and analyzed with the Gen5 2.06® program.

The subject of series [5] is Keap1, Nrf2 and p62 in C6 cells. As to the kind of experiment: Sequential immunofluorescence, co-location of Keap1-p62, Nrf2-p62 and Keap1-Nrf2. The note with it: Cur-[G2]-OH 6, 45 or 90 µM, 24 hours. In kind it is cell-based, rat. The method, then: Sequential immunofluorescence: For the protein co-location studies of Keap1-p62, Nrf2-p62 and Keap1-Nrf2, 5×10^3 C6 cells/well were grown in half-area 96 well plates and incubated for 24 hours. Subsequently, the cells were treated with Cur-[G2]-OH (6, 45 or 90 µM) and incubated for 24 hours. In control cells only DMEM medium was replaced by fresh medium. Then, cells were washed with cold PBS and fixed with paraformaldehyde (4% in PBS) or with a mix of methanol/acetone, with paraformaldehyde, cells were washed and permeabilized with PBST (this step was not performed on the cells fixed with methanol/acetone). Cells were washed again and blocked in BSA at 1% in PBST.
The cells were incubated in the first primary antibody (Keap1 or Nrf2) at 4° C. overnight, and subsequently washed and re-incubated with the fluorochrome-conjugated secondary antibody (Alexa fluor 488 Abcam® ab150129), in the dark for 1 hour at room temperature. They were washed and again blocked for 30 minutes with goat serum; The serum was removed and the solution of the second respective primary antibody (p62 or Nrf2) was placed. It was incubated at 4° C. overnight. The incubation of the secondary antibodies proceeded in the same manner as described before, but using the Alexa flour 647 antibody from Abcam® (ab150079). The nuclei were stained with Hoechst 33342 solution (0.1 μg/ml) and the images were captured on a Cytation 3® multimodal plate reader (Bio Tek®, Instruments Inc.), with the Gen5 2.06 program using DAPI filters (λ=377-447 nm), GFP (λ=469-525 nm) and Texas Red (λ=586-647 nm).

[6] abbreviates: Cur-[G2]-OH 300 μM, 24 h, vs untreated cells.
Setting [7] is: curcumin 2, 15 and 30 μM or Cur-[G2]-OH 6, 45 and 90 μM, 24 h.

Turning to `COc1cc(/C=C/C(=O)/C=C(O)/C=C/c2ccc(OC(=O)C(C)(COC(=O)C(C)(CO)CO)COC(=O)C(C)(CO)CO)c(OC)c2)ccc1OC(=O)C(C)(COC(=O)C(C)(CO)CO)COC(=O)C(C)(CO)CO` [Cur-[G-2]-OH], in the series on C6 cells from rat glioma [1], the “DNA fragmentation (agarose gel electrophoresis)” value was “DNA remains packed and does not migrate into the gel”. Also, the “stability in acidic pH” value in series [2] is “instability of Cur-[G-2]-OH in the acidic pH of gastric juices”. Also, the “decrease at GSH levels” value in the series on C6 cells (300 μM, 24 h) is “about 50%”. The GSH levels entry with C6 cells (300 μM, 48 hours, data not shown) is “complete elimination of GSH levels”. Besides, the “baseline levels of GSH” value with C6 cells (intermediate doses 45 and 90 μM, 24 hours) is given as “causes the baseline levels of GSH to increase considerably”. Besides, in series [3] (setting [6]), the “expression of Beclin1 (Western blot)” value is on record as “increases the expression of Beclin1” and the “expression of p62 (Western blot)” value is on record as “decreases the expression of p62”. Besides, the “total levels of the Nrf2 protein (immunoblot)” value in series [3] (Cur-[G2]-OH 300 μM, vs untreated cells) is reported as “significant decrease in Total levels of the Nrf2 protein”. Further, in series [3] (setting [7]), the “levels of total eIF2-α (immunoblot)” value is reported as “without substantial changes in the levels of total eIF2-α” and the “phosphorylation of eIF2-α (p-eIF2-α, immunoblot)” value was “significant decrease in phosphorylation of eIF2-α”. Moreover, the “nuclear staining / apoptotic morphology (propidium iodide and Hoechst 33342)” value in the series with C6 cells from rat glioma [4] is “staining of the nuclei similar to that of the untreated controls”. For the same compound, in series [5], the “co-location Keap1-Nrf2 in the nucleus” value is reported as “interaction of Keap1 with Nrf2 in this subcellular compartment is observed”; the “expression of Keap1 in nucleus and cytoplasm (immunofluorescence)” value is “significant levels are still detected, both in the nucleus and in the cytoplasm”; the “expression of Nrf2 in cytoplasm and nucleus (immunofluorescence)” value is “rapidly induces the loss of the expression of protein Nrf2 in the cytoplasm and the attenuation of the signal in the nucleus”; the “p62 localisation and co-location Keap1-p62” value was “promotes the exclusion of p62 from the nucleus and its interaction with Keap1 in the cytoplasm and autophagosomes”.

(Values after patent US11684592B2, “Multiresistant-tumour sensitiser” (Instituto Nacional de Neurologia Y Neurocirugia Manuel …, priority 2017, dated 2023).)
